The values below are quoted from earlier work in patent US20260191920A1, “METHODS AND COMPOSITIONS FOR TREATING AND PREVENTING CENTRAL NERVOUS SYSTEM DISORDERS AND OTHER CONDITIONS CAUSED BY GUT MICROBIAL DYSBIOSIS” (HOLOBIOME, INC., priority 2019, published 2026).

For series [1] the following is noted: by day 6, mice pretreated with oral antibiotics, regardless of diet; cited from earlier work.
In a further series the test system is germ-free mice. The settings on record: chemically synthesized queuine at 0.1 μM in the diet; cited from earlier work.
Series [2] deals with (Q+)tRNA^His and (Q+)tRNA^Asn in the liver. The settings on record: queuine-deficient mice, intraperitoneal, 325 micrograms per injection, 24 h apart; cited from earlier work.

As to `[CH3][Hg][Cl]` [methylmercury], the “fraction of ingested dose eliminated” value in series [1] is 0-6%.
For `Nc1nc2[nH]cc(CN[C@H]3C=C[C@H](O)[C@@H]3O)c2c(=O)[nH]1` [queuine, 2-amino-5-((((1S,4S,5R)-4,5-dihydroxy-2-cyclopenten-1-yl)amino)methyl)-1,7-dihydro-4H-pyrrolo (2,3-d) pyrimidin-4-one], the “effect on adverse health effects and death of tyrosine- and queuine-deprived germ-free mice” value in the series with germ-free mice is on record as “prevented emergence of these deleterious effects”. The “(Q+)tRNA^His and (Q+)tRNA^Asn percentages in the liver” value in series [2] was “corresponding increase”.
